In patent US12077503B2, “Substituted cyclic amides and their use as herbicides” (FMC CORPORATION, priority 2015, dated 2024):

Legend:
Type in all cases: in vivo
Kochia (Kochia scoparia) [1] = assay: Test A postemergence; settings: postemergence, 0 to 100 scale (0 no effect, 100 complete control)
Summary of the method: (§1)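 Greenhouse, ~10 d after spray; visual injury vs untreated controls, 0 = no effect, 100 = complete control. Preemergence: directed soil spray over planted seeds. Postemergence: plants 2–10 cm, 1–2 leaf stage. Loam/sand blend. Compound in non-phytotoxic solvent with surfactant.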

[2] = tested on: barnyardgrass (Echinochloa crus-galli); assay: Test A postemergence
Summary of the method: as §1

[3] = tested on: wheat (Triticum aestivum); assay: Test A postemergence; settings: postemergence, 0 to 100 scale (0 no effect, 100 complete control)
Summary of the method: as §1

[4] = tested on: pigweed (Amaranthus retroflexus); assay: Test A postemergence; settings: postemergence, 0 to 100 scale (0 no effect, 100 complete control)
Summary of the method: as §1

corn (Zea mays) = assay: Test A postemergence
Summary of the method: as §1

[5] = tested on: ryegrass, Italian (Italian ryegrass, Lolium multiflorum); assay: Test A postemergence; settings: postemergence, 0 to 100 scale (0 no effect, 100 complete control)
Summary of the method: as §1

[6] = tested on: Galium (catchweed bedstraw, Galium aparine); assay: Test A postemergence; settings: postemergence, 0 to 100 scale (0 no effect, 100 complete control)
Summary of the method: as §1

[7] = tested on: ragweed (common ragweed, Ambrosia elatior); assay: Test A postemergence; settings: postemergence, 0 to 100 scale (0 no effect, 100 complete control)
Summary of the method: as §1

[8] = tested on: blackgrass (Alopecurus myosuroides); assay: Test A postemergence
Summary of the method: as §1

[9] = tested on: giant foxtail (Setaria faberii); assay: Test A postemergence; settings: postemergence, 0 to 100 scale (0 no effect, 100 complete control)
Summary of the method: as §1

[10] = tested on: ducksalad (Heteranthera limosa); assay: Test B flooded paddy test; settings: Flood, 250 g ai/ha; 0 to 100 scale where 0 is no effect and 100 is complete control; 13 to 15 d
Summary of the method: (§2)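 Plants at 2-leaf stage flooded to 3 cm above soil, with compounds applied directly to paddy water and that depth maintained. Plants kept in greenhouse 13–15 d. Visual rating versus controls on a 0 (no effect) to 100 (complete control) scale.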

[11] = tested on: sedge, umbrella (small-flower umbrella sedge, Cyperus difformis); assay: Test B flooded paddy test; settings: Flood, 250 g ai/ha; 0 to 100 scale where 0 is no effect and 100 is complete control; 13 to 15 d
Summary of the method: as §2

[12] = tested on: barnyardgrass (Echinochloa crus-galli); assay: Test B flooded paddy test; settings: Flood, 250 g ai/ha; 0 to 100 scale where 0 is no effect and 100 is complete control; 13 to 15 d
Summary of the method: as §2

rice (Oryra sativa) = assay: Test B flooded paddy test; settings: Flood, 250 g ai/ha; 0 to 100 scale where 0 is no effect and 100 is complete control; 13 to 15 d
Summary of the method: as §2

[13] = tested on: ducksalad (Heteranthera limosa); assay: Test C flooded paddy test; settings: Flood; for Plant response rating, Ducksalad: 31 g ai/ha, scale 0 to 100 (0 no effect, 100 complete control), 13 to 15 d; for Plant response rating (scale of 0 to 100), Ducksalad: 0 is no effect, 100 is complete control
Summary of the method: (§3)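 Plants grown to the 2-leaf stage in pots flooded to 3 cm above soil; compounds applied directly into the paddy water, depth held throughout. After 13 to 15 d in greenhouse, injury visually rated against untreated controls on a 0–100 scale (0 no effect, 100 complete control).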

[14] = tested on: sedge, umbrella (small-flower umbrella sedge, Cyperus difformis); assay: Test C flooded paddy test; settings: Flood; for Plant response rating, Sedge, Umbrella: 31 g ai/ha, scale 0 to 100 (0 no effect, 100 complete control), 13 to 15 d; for Plant response rating (scale of 0 to 100), Sedge, Umbrella: 0 is no effect, 100 is complete control
Summary of the method: as §3

[15] = tested on: barnyardgrass (Echinochloa crus-galli); assay: Test C flooded paddy test; settings: Flood; for Plant response rating, Barnyardgrass: 31 g ai/ha, scale 0 to 100 (0 no effect, 100 complete control), 13 to 15 d; for Plant response rating (scale of 0 to 100), Barnyardgrass: 0 is no effect, 100 is complete control
Summary of the method: as §3

rice (Oryza sativa) = assay: Test C flooded paddy test; settings: Flood; for Plant response rating, Rice: 31 g ai/ha, scale 0 to 100 (0 no effect, 100 complete control), 13 to 15 d; for Plant response rating (scale of 0 to 100), Rice: 0 is no effect, 100 is complete control
Summary of the method: as §3

Kochia (Kochia scoparia) [16] = assay: Test A preemergence
Summary of the method: as §1

[17] = tested on: barnyardgrass (Echinochloa crus-galli); assay: Test A preemergence
Summary of the method: as §1

[18] = tested on: pigweed (Amaranthus retroflexus); assay: Test A preemergence
[19] = tested on: ryegrass, Italian (Italian ryegrass, Lolium multiflorum); assay: Test A preemergence
Summary of the method: as §1

[20] = tested on: ragweed (common ragweed, Ambrosia elatior); assay: Test A preemergence
Summary of the method: as §1

[21] = tested on: giant foxtail (Setaria faberii); assay: Test A preemergence
Summary of the method: as §1

[22] = 125 g ai/ha, visual rating after approx. 10 d
[23] = 500 g ai/ha, visual injury, approx. 10 d
[24] = 125 g ai/ha, postemergence, visual rating after approx. 10 d, 0 to 100 scale (0 no effect, 100 complete control)
[25] = Postemergence, 500 g ai/ha, 0 to 100 scale where 0 is no effect and 100 is complete control
[26] = 125 g ai/ha, Preemergence, visual injury after approximately 10 d, 0 to 100 scale where 0 is no effect and 100 is complete control
[27] = 500 g ai/ha, preemergence, 0 to 100 scale, 0 = no effect, 100 = complete control
[28] = 500 g ai/ha, postemergence, visual injury, 0 to 100 scale (0 no effect, 100 complete control), approx. 10 d

CN1CC(c2cccc(C(F)(F)F)c2)C(C(=O)Nc2ccccc2C(F)(F)F)C1=O (centres unmarked) [Compound 638]
Plant response rating, Kochia (Kochia (Kochia scoparia) [1]; [22]): 20 | Plant response rating, Kochia (Kochia (Kochia scoparia) [1]; [23]): 40 | Plant response rating, Barnyardgrass [2, 24]: 90 | Plant response rating, Barnyardgrass [2, 25]: 90 | Plant response rating, Wheat [3, 22]: 60 | Plant response rating, Wheat [3, 23]: 70 | Plant response rating, Pigweed [4, 22]: 20 | Plant response rating, Pigweed [4, 23]: 50 | Plant response rating, Corn (corn (Zea mays); [24]): 70 | Plant response rating, Corn (corn (Zea mays); [25]): 80 | Plant response rating, Ryegrass, Italian [5, 22]: 30 | Plant response rating, Ryegrass, Italian [5, 23]: 40 | Plant response rating, Galium [6, 22]: 60 | Plant response rating, Galium [6, 23]: 60 | Plant response rating, Ragweed [7, 22]: 0 | Plant response rating, Ragweed [7, 23]: 0 | Plant response rating, Blackgrass [8, 24]: 50 | Plant response rating, Blackgrass [8, 25]: 70 | Plant response rating, Foxtail, Giant [9, 22]: 90 | Plant response rating, Foxtail, Giant [9, 23]: 90 | Plant response rating, Ducksalad [10]: 100 | Plant response rating, Sedge, Umbrella [11]: 0 | Plant response rating, Barnyardgrass [12]: 85 | Plant response rating, Rice (rice (Oryra sativa)): 10 | Plant response rating, Ducksalad [13]: 0 | Plant response rating (scale of 0 to 100), Ducksalad ([13]; 62 g ai/ha): 40 | Plant response rating (scale of 0 to 100), Ducksalad ([13]; 125 g ai/ha): 60 | Plant response rating (scale of 0 to 100), Ducksalad ([13]; 250 g ai/ha): 75 | Plant response rating, Sedge, Umbrella [14]: 0 | Plant response rating (scale of 0 to 100), Sedge, Umbrella ([14]; 62 g ai/ha): 0 | Plant response rating (scale of 0 to 100), Sedge, Umbrella ([14]; 125 g ai/ha): 0 | Plant response rating (scale of 0 to 100), Sedge, Umbrella ([14]; 250 g ai/ha): 0 | Plant response rating, Barnyardgrass [15]: 45 | Plant response rating (scale of 0 to 100), Barnyardgrass ([15]; 62 g ai/ha): 55 | Plant response rating (scale of 0 to 100), Barnyardgrass ([15]; 125 g ai/ha): 60 | Plant response rating (scale of 0 to 100), Barnyardgrass ([15]; 250 g ai/ha): 75 | Plant response rating, Rice (rice (Oryza sativa)): 20 | Plant response rating (scale of 0 to 100), Rice (rice (Oryza sativa); 62 g ai/ha): 25 | Plant response rating (scale of 0 to 100), Rice (rice (Oryza sativa); 125 g ai/ha): 25 | Plant response rating (scale of 0 to 100), Rice (rice (Oryza sativa); 250 g ai/ha): 25 | Plant response rating, Kochia (Kochia (Kochia scoparia) [16]; [26]): 0 | Plant response rating, Kochia (Kochia (Kochia scoparia) [16]; [27]): 20 | Plant response rating, Barnyardgrass [17, 26]: 90 | Plant response rating, Barnyardgrass [17, 27]: 90 | Plant response rating, Pigweed [18, 26]: 40 | Plant response rating, Pigweed [18, 27]: 60 | Plant response rating, Ryegrass, Italian [19, 26]: 30 | Plant response rating, Ryegrass, Italian [19, 27]: 90 | Plant response rating, Ragweed [20, 26]: 30 | Plant response rating, Ragweed [20, 27]: 60 | Plant response rating, Foxtail, Giant [21, 26]: 90 | Plant response rating, Foxtail, Giant [21, 27]: 100

CN1CC(c2cc(F)cc(F)c2)C(C(=O)Nc2ccccc2F)C1=O (centres unmarked) [Compound 643]
Plant response rating, Kochia (Kochia (Kochia scoparia) [1]; [22]): 0 | Plant response rating, Kochia (Kochia (Kochia scoparia) [1]; [23]): 20 | Plant response rating, Barnyardgrass [2, 24]: 90 | Plant response rating, Barnyardgrass [2, 28]: 90 | Plant response rating, Wheat [3, 22]: 0 | Plant response rating, Wheat [3, 23]: 50 | Plant response rating, Pigweed [4, 22]: 0 | Plant response rating, Pigweed [4, 23]: 0 | Plant response rating, Corn (corn (Zea mays); [24]): 0 | Plant response rating, Corn (corn (Zea mays); [28]): 70 | Plant response rating, Ryegrass, Italian [5, 22]: 30 | Plant response rating, Ryegrass, Italian [5, 23]: 30 | Plant response rating, Galium [6, 22]: 0 | Plant response rating, Galium [6, 23]: 50 | Plant response rating, Ragweed [7, 22]: 0 | Plant response rating, Ragweed [7, 23]: 30 | Plant response rating, Blackgrass [8, 24]: 50 | Plant response rating, Blackgrass [8, 28]: 60 | Plant response rating, Foxtail, Giant [9, 22]: 90 | Plant response rating, Foxtail, Giant [9, 23]: 90 | Plant response rating, Ducksalad [10]: 100 | Plant response rating, Sedge, Umbrella [11]: 0 | Plant response rating, Barnyardgrass [12]: 80 | Plant response rating, Rice (rice (Oryra sativa)): 15 | Plant response rating, Ducksalad [13]: 20 | Plant response rating (scale of 0 to 100), Ducksalad ([13]; 62 g ai/ha): 50 | Plant response rating (scale of 0 to 100), Ducksalad ([13]; 125 g ai/ha): 75 | Plant response rating (scale of 0 to 100), Ducksalad ([13]; 250 g ai/ha): 100 | Plant response rating, Sedge, Umbrella [14]: 0 | Plant response rating (scale of 0 to 100), Sedge, Umbrella ([14]; 62 g ai/ha): 0 | Plant response rating (scale of 0 to 100), Sedge, Umbrella ([14]; 125 g ai/ha): 0 | Plant response rating (scale of 0 to 100), Sedge, Umbrella ([14]; 250 g ai/ha): 0 | Plant response rating, Barnyardgrass [15]: 0 | Plant response rating (scale of 0 to 100), Barnyardgrass ([15]; 62 g ai/ha): 35 | Plant response rating (scale of 0 to 100), Barnyardgrass ([15]; 125 g ai/ha): 65 | Plant response rating (scale of 0 to 100), Barnyardgrass ([15]; 250 g ai/ha): 90 | Plant response rating, Rice (rice (Oryza sativa)): 0 | Plant response rating (scale of 0 to 100), Rice (rice (Oryza sativa); 62 g ai/ha): 0 | Plant response rating (scale of 0 to 100), Rice (rice (Oryza sativa); 125 g ai/ha): 0 | Plant response rating (scale of 0 to 100), Rice (rice (Oryza sativa); 250 g ai/ha): 10 | Plant response rating, Kochia (Kochia (Kochia scoparia) [16]; [26]): 0 | Plant response rating, Kochia (Kochia (Kochia scoparia) [16]; [27]): 40 | Plant response rating, Barnyardgrass [17, 26]: 90 | Plant response rating, Barnyardgrass [17, 27]: 90 | Plant response rating, Pigweed [18, 26]: 0 | Plant response rating, Pigweed [18, 27]: 20 | Plant response rating, Ryegrass, Italian [19, 26]: 20 | Plant response rating, Ryegrass, Italian [19, 27]: 90 | Plant response rating, Ragweed [20, 26]: 0 | Plant response rating, Ragweed [20, 27]: 20 | Plant response rating, Foxtail, Giant [21, 26]: 100 | Plant response rating, Foxtail, Giant [21, 27]: 100
